Source: patent US6391575B1, “Methods for detecting membrane derived caspase activity and modulators thereof” (IDUN Pharmaceuticals, Inc., priority 1999, dated 2002)

What was measured:
[1] = system: caspase-3 in cytoplasmic fractions (697-neo and 697-Bcl-2 cells); assay: Effect of exogenous cytochrome c on cytoplasmic fraction caspase activity; assay type: biochemical, human; conditions: cytochrome c during fractionation and assay; neo and Bcl-2 cells; FIG. 6B
Protocol: (§1) Frozen cell pellets containing ≈10^9 cells were thawed and resuspended in cold hypotonic buffer (10 mM Na-HEPES, 5 mM MgCl2, 42 mM KCl, pH 7.4) supplemented with 1 mM PMSF, 1 μg/ml leupeptin, 1 μg/ml pepstatin A, 5 μg/ml aprotinin, 0.1 mM EDTA, 0.1 mM EGTA and 5 mM DTT (Sigma) to a density of ≈1.5×10^8 cells/ml. The samples were incubated on ice for 30 min at which time the cells were lysed using 30-40 strokes with a Dounce homogenizer. The sample was centrifuged twice for 10 min at 500×g, 4° C. to separate the nuclei. The nuclear pellets were then washed twice in the same buffer supplemented with 1.6M sucrose, yielding the nuclear fraction. The supernatant was then centrifuged at 14,000×g for 30 min at 4° C. to pellet the heavy membranes. […] Protein concentrations were measured using Protein Assay Kit II from BioRad with bovine serum albumin as the calibration standard. […]
(§2) Heavy membrane samples were diluted to 1 mg/ml in hypotonic buffer or in 0.25 M sucrose, 10 mM MOPS, 2 mM EDTA, pH 7.4 (Mancini, et al., 1998) containing 5 mM DTT with or without 1% NP-40. […] To examine the time course of spontaneous activation of caspase activity from membranes, 50 μl of heavy membrane slurry containing 50-100 μg total protein was mixed with 200 μl hypotonic buffer containing 25 μM DEVD-amc substrate and 6 mM DTT in 96 well Cytofluor plates and fluorescence was measured over time. […]

[2] = system: membrane-associated procaspase-3 (697-neo and 697-Bcl-2 heavy membranes); assay: Effect of exogenous cytochrome c on heavy membrane caspase activity; assay type: biochemical, human; conditions: 10 μg/ml bovine cytochrome c during fractionation; 1 μg/ml cytochrome c plus dATP, 40 min at 30° C.; FIG. 6A
Protocol: as §1, §2

[3] = molecular target: T1, membrane-derived caspases (Homo sapiens, UniProt P42574); assay: Kinetics of DEVD-amc hydrolysis by membrane-derived caspases; assay type: biochemical; conditions: substrate concentration varied 1-100 μM
T1 construct: endogenous in cells
T1 sequence (P42574 29-175 limits assumed): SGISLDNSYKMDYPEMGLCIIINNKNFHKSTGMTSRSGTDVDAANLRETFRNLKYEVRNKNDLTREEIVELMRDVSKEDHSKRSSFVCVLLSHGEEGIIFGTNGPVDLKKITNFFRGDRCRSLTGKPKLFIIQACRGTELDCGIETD
T1 sequence (P42574 176-277 limits assumed): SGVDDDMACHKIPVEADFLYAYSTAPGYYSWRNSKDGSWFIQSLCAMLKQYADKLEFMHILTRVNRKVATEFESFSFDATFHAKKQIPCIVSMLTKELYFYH
Protocol: Caspase activity was measured by mixing 50 μl of an enzyme-containing fraction and 200 μl of 25 μM DEVD-amc (Asp-Glu-Val-Asp-aminomethylcoumarin) substrate in ICE buffer (20 mM HEPES, 1 mM EDTA, 0.1% CHAPS, 10% sucrose, 5 mM DTT, pH 7.5) in duplicate Cytoplate wells. Product formation was monitored by the increase in fluorescence (ex=360 nm, em=460 nm) over 1-2 hours at 30 ° C. using the CytoFluor 4000 plate reader (Perseptive Biosystems, Framingham, Mass.). For kinetic studies, the substrate concentration was varied in the range 1-100 μM. For inhibition studies the enzyme was pretreated with 150 μl inhibitor for 30 min at room temperature prior to the addition of 50 μl of 50 μM substrate solution. Inhibitor IC50 values were determined using the equation: […]
The membrane-derived caspase activities were further characterized by measuring the inhibition of DEVD-amc cleavage by several peptide aldehyde inhibitors (Table I). […] The observed IC50 values for the membrane associated caspases are very similar to those for purified fully-processed recombinant human caspase-3. […] N-terminal microsequence analysis of activated, affinity purified heavy membrane caspase confirms that this enzyme is indeed human caspase-3.

| Effect on membrane-derived caspase activity (DEVD-amc cleavage) [2] | Km [3] | Substance | Effect on DEVD-amc cleavage activity of cytoplasmic fractions [1] |
| --- | --- | --- | --- |
| no effect |  | cytochrome c: bovine cytochrome c (Sigma) | strongly activated |
|  | 10 µM | Acetyl-Asp-Glu-Val-Asp-aminomethylcoumarin [DEVD-amc] |  |
